Experimental data published in PMC10571761, “Transgenic Mice Expressing Functional TCRs Specific to Cardiac Myhc-α 334–352 on Both CD4 and CD8 T Cells Are Resistant to the Development of Myocarditis on C57BL/6 Genetic Background” (Cells, 2023).
Peptide text beside a SMILES is read from it.

Assays:
IA^k = biological target: T1, IA^k (Mus musculus, UniProt P01910+P06343); assay: IA^k binding assay (DELFIA competition); conditions: soluble thrombin-cleaved IA^k; reference peptide biotinylated HEL 46–61; overnight RT; europium-labeled streptavidin, fluorescence 340/615 nm; mean ± SEM from three to five experiments, three replicates each; read-out: IC50 value, binding to IA^k molecules
T1 construct: After expressing soluble IA^k and IA^b monomers in a baculovirus system; CLIP peptide, released by thrombin cleavage (cleaved yes); made in house; host or cells: baculovirus system (insect cells; Sf9 is stated only for IA^b)

IA^b = biological target: T2, IA^b (Mus musculus, UniProt P14434+P14483); assay: IA^b binding assay (DELFIA competition); conditions: soluble thrombin-cleaved IA^b (0.35 µg); competitor 0.00001 µM to 100 µM; biotinylated OVA 323–339 (50 µM) reference; pH 7.0 phosphate; overnight RT; fluorescence 340/615 nm; three to five experiments, three replicates each; read-out: IC50 value, binding to IA^b molecules
T2 construct: IA^b constructs were designed to contain the extracellular domains of IA^b-α and IA^b-β; CLIP 88–102 ([…]) with thrombin site (cleaved yes); made in house; host or cells: Sf9 insect cells (baculovirus)
T2 sequence (P14434 24-218 limits assumed): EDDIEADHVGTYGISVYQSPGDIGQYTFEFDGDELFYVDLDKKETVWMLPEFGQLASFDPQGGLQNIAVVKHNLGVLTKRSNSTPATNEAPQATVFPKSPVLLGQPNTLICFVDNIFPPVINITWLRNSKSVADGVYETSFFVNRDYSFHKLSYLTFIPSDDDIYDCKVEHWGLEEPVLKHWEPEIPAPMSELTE
T2 sequence (P14483 28-226 limits assumed): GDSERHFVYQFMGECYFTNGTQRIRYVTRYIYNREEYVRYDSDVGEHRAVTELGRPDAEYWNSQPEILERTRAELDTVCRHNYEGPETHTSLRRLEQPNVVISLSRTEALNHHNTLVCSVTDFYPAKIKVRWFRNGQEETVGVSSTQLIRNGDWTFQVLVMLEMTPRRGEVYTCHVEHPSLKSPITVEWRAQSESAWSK
From the text: To determine the binding affinity of Myhc-α 334–352 to IA^b, soluble IA^b molecules were expressed similarly to the IA^k molecule. Briefly, IA^b constructs were designed to contain the extracellular domains of IA^b-α and IA^b-β [43]. The IA^b-β construct consisted of the class II-associated invariant chain peptide (CLIP) 88–102 (VSQMRMATPLLMRPM) and thrombin site to release the CLIP [44]. After expressing the IA^b molecules in baculovirus using Sf9 cells and purifying on an anti-IA^b affinity column (clone, M5/114) (BioXCell, West Lebanon, NH, USA), they were cleaved with thrombin to obtain empty IA^b molecules. […] In addition, anti-IA^b (10 µg/mL) was coated onto white fluorescence 96-well plates (Nunc, Rochester, NY, USA) in 0.2 M sodium phosphate buffer, pH 6.8, overnight, followed by washing and blocking with 2% casein for 2 h at 37 °C. […] Europium-labeled streptavidin was added (1 µg/mL) in dissociation-enhanced lanthanide fluorescence immunoassay (DELFIA®) buffer and then the DELFIA®-enhancement solution (Perkin Elmer, Waltham, MA, USA). Fluorescence intensities were measured at wavelengths of 340/615 nm using a VICTOR® Multilabel Plate Reader (Perkin Elmer), and IC50 values were then determined. […]

A/J mice = conditions: immunization with CFA; cited from earlier work
From the text: Histologically, the disease process can be classified into lymphocytic, neutrophilic, eosinophilic, granulomatous, and giant cell myocarditis. Of these, lymphocytic myocarditis generally occurs with viral infections. Although most myocarditis-affected individuals may spontaneously recover, up to 20% of them can develop DCM, in which autoimmunity is suspected as an underlying mechanism. […] The immunogenic epitopes can be promiscuous in that they can bind multiple MHC alleles.

lymphocytes from Tg mice = assay: Cytokine analysis, lymphocytes of immunized Tg mice; type: cell-based, TCR transgenic mice on C57BL/6 background; conditions: control peptide, two days
Procedure: Myhc-α 334–352 immunizations involved peptide/CFA emulsions containing Mycobacterium tuberculosis H37RA extract (Difco Laboratories, Detroit, MI, USA) with a final concentration of 5 mg/mL. The emulsions were administered subcutaneously (100 µg/mouse) in the inguinal and sternum regions on days 0 and 7. In some experiments, animals received emulsions in the left and right shoulders and on the right and left sides of the hip regions in split doses. Additionally, pertussis toxin (List Biological Laboratories, Campbell, CA, USA) was administered to animals intraperitoneally (100 ng/mouse) on days 0 and 2 after the first immunization.
Lymphocytes were obtained from wild-type (Wt) or Tg mice immunized with or without Myhc-α 334–352. […] Cytokines were analyzed using the LEGENDplex Murine Th cytokine Panel (12-plex or 13-plex; BioLegend). […] Beads were acquired by flow cytometry (FACSCalibur™), and concentrations of cytokines were determined using the LEGENDplex™ data analysis software suite (BioLegend). […]
Figure 6 Tg T cells produce mainly Th1 and Th17 cytokines. […] Cells were stimulated with or without Myhc-α 334–352 or OVA 323–339 (control) at the indicated concentrations for two days, and the culture supernatants were evaluated by cytokine bead array analysis except for IL-4, which was measured by ELISA. […]

CD4 and CD8 T cells = conditions: cited from earlier work
From the text: In that direction, we sought to create TCR Tg mice specific to Myhc-α 334–352 and made a few observations. […] However, expression of Myhc-α 334–352-specific TCRs in both CD4 and CD8 T cells was not expected. To our knowledge, our Tg model is only the second such example to have been reported, with the earlier example being 1C6 Tg mice specific to myelin olig ...

BALB/c mice = conditions: immunization with CFA; cited from earlier work
From the text: (§1) Histologically, the disease process can be classified into lymphocytic, neutrophilic, eosinophilic, granulomatous, and giant cell myocarditis. Of these, lymphocytic myocarditis generally occurs with viral infections. Although most myocarditis-affected individuals may spontaneously recover, up to 20% of them can develop DCM, in which autoimmunity is suspected as an underlying mechanism. Although autoantibodies for various antigens—such as cardiac myosin (Myhc), adenine nucleotide translocator (ANT), branched-chain α-ketoacid dehydrogenase kinase (BCKDk), sarcoplasmic/end ...

rats = conditions: immunization with CFA; cited from earlier work
From the text: as §1

[1] = biological target: T3, cardiac myosin heavy chain (Myhc)-α peptide on I-Ak (mouse); assay: multimer staining
T3 peptide: DSAFDVLSFTAEEKAGVYK

With CC(C)C[C@H](NC(=O)[C@@H](NC(=O)[C@H](CC(=O)O)NC(=O)[C@H](Cc1ccccc1)NC(=O)[C@H](C)NC(=O)[C@H](CO)NC(=O)[C@@H](N)CC(=O)O)C(C)C)C(=O)N[C@@H](CO)C(=O)N[C@@H](Cc1ccccc1)C(=O)N[C@H](C(=O)N[C@@H](C)C(=O)N[C@@H](CCC(=O)O)C(=O)N[C@@H](CCC(=O)O)C(=O)N[C@@H](CCCCN)C(=O)N[C@@H](C)C(=O)NCC(=O)N[C@H](C(=O)N[C@@H](Cc1ccc(O)cc1)C(=O)N[C@@H](CCCCN)C(=O)O)C(C)C)[C@@H](C)O [Myhc-α 334–352] (H-DSAFDVLSFTAEEKAGVYK-OH) the IC50 (IA^k) was 37.8 ± 10.3 µM and the IC50 (IA^b) was greater than 100 µM.

For “ANT 21–40: adenine nucleotide translocator 21–40 epitope (VSKTAVAPIERVKLLLQVQH; UniProt P48962 21-40, looked up, fragment)”, the “myocarditis induction in A/J mice (in words)” value (A/J mice) is listed as “myocarditogenic”.

For ISQAVHAAHAEINEAGR [OVA 323–339], the “cytokine responses (in words)” value (lymphocytes from Tg mice) was “lack of cytokine responses”.

For “MOG 35–55: myelin oligodendrocyte glycoprotein 35–55 (GPGYPIRALVGDEAELPCRIS; UniProt Q61885 35-55, looked up, fragment)”, the “T cell stimulation (in words)” value (CD4 and CD8 T cells) is listed as “stimulate both cell types”.

For “Myhc-α 338–348: truncated version of Myhc-α 334–352 (DVLSFTAEEKA; UniProt Q02566 338-348, looked up, fragment)”, the “T cell stimulation by truncated peptide (in words)” value (CD4 and CD8 T cells; A/J) is given as “could stimulate both CD4 and CD8 T cells”.

For “Myhc-α 614–643: myocarditogenic epitope in BALB/c mice (SLKLMATLFSTYASADTGDSGKGKGGKKKG; UniProt Q02566 614-643, looked up, fragment)”, the “myocarditis induction in BALB/c mice (in words)” value (BALB/c mice) is listed as “myocarditogenic”.

For “Myhc-α 1304–1320: myocarditogenic epitope in rats (RGKLSYTQQMEDLKRQL; UniProt P02563 1304-1320, looked up, fragment)”, the “myocarditis induction in rats (in words)” value (rats) is given as “myocarditogenic”.

In the case of “SERCA2a 971–990: sarcoplasmic/endoplasmic reticulum Ca2^+ adenosine triphosphatase 2a 971–990 epitope (KISLPVILMDETLKFVARNY; UniProt O55143 971-990, looked up, fragment)”, the “myocarditis induction in A/J mice (in words)” value (A/J mice) is given as “myocarditogenic”.

In the case of “cTNI 105–122: cardiac troponin I 105–122 epitope (VDKVDEERYDVEAKVTKN; UniProt P48787 105-122, looked up, fragment)”, the “myocarditis induction in A/J mice (in words)” value (A/J mice) is given as “myocarditogenic”.

For “β1AR 181–200: β1 adrenergic receptor 181–200 epitope (TVWAISALVSFLPILMHWWR; UniProt P34971 181-200, looked up, fragment)”, the “myocarditis induction in A/J mice (in words)” value (A/J mice) is listed as “myocarditogenic”.

B1: Myhc-α 334–352-specific TCR of T cell hybridoma clone C33 (transgenic TCR of the Myhc-α 334–352 TCR Tg mice) (TCR)
alpha TRAV14-1*02 TRAJ42*01 CDR3: CAASAEGSNAKLTF
beta TRBV2*01 TRBJ2-5*01 CDR3: CASSQSLGQDTQYF
B1: recognises [1].
